Laboratory results published in ChEMBL document CHEMBL6083234, “Discovery of novel 1,4-dicarbonylthiosemicarbazides as DNA gyrase inhibitors for the treatment of MRSA infection” (Eur J Med Chem, 2024).
In brackets after ≈: the same amount, converted by molar mass. Each block holds one compound with its values, some of them ahead of it. Activity calls are given as the source filed them. No cut-off for these calls is given here.

Tests used:
[1] = Cytotoxicity against HUVEC cells assessed as reduction in cell viability incubated for 48 hrs by CCK8 assay; assay type: toxicity, cell-based; settings: human
[2] = Cytotoxicity against human HepG2 cells assessed as reduction in cell viability incubated for 48 hrs by CCK8 assay; assay type: toxicity, cell-based
Staphylococcus aureus [3] = experiment: Antibacterial activity against Staphylococcus aureus ATCC 29213 assessed as inhibition of bacterial growth incubated for 18 to 24 hrs by broth microdilution method; assay type: functional; settings: time 18-24 hrs
DNA gyrase [4] = molecular target: T1, DNA gyrase (Staphylococcus aureus, UniProt P0A0K8+P20831); experiment: Inhibition of Staphylococcus aureus DNA gyrase ATP hydrolysis activity using pBR322 DNA as substrate incubated for 30 mins in presence of ATP by ADP-Glo reagent based assay; assay type: protein-complex assay
Staphylococcus aureus [5] = experiment: Antibacterial activity against Staphylococcus aureus ATCC 25923 incubated for 24 hrs by CLSI protocol based broth microdilution method; assay type: functional
Topoisomerase IV = Topoisomerase IV (Staphylococcus aureus, UniProt P0C1S7+P0C1U9); experiment: Inhibition of Staphylococcus aureus DNA topoisomerase 4 decatenation activity incubated for 1 hrs by ethidium bromide staining based analysis; assay type: protein-complex assay
DNA gyrase [6] = molecular target: T1, DNA gyrase; experiment: Inhibition of Staphylococcus aureus DNA gyrase supercoiling using supercoiled pBR322 DNA as substrate incubated for 60 mins by ethidium bromide staining based analysis; assay type: protein-complex assay
Staphylococcus aureus [7] = experiment: Antibacterial activity against methicillin-resistant Staphylococcus aureus incubated for 24 hrs by CLSI protocol based broth microdilution method; assay type: functional
Staphylococcus aureus [8] = experiment: Antibacterial activity against methicillin-resistant Staphylococcus aureus clinical isolate 16-1 infected in kunming mouse model assessed as survival rate at 7 mg/kg, iv pre-infected with bacteria for 10 mins followed by compound administration and measured for 7 days (reference value: 0 %); assay type: functional; settings: 168 h, time 7 day
Staphylococcus aureus [9] = experiment: Bactericidal activity against Staphylococcus aureus ATCC 29213 assessed as log reduction in bacterial colony counts at 16 times of MIC measured after 24 hrs by time-kill assay; assay type: functional
Staphylococcus aureus [10] = experiment: Antibacterial activity against methicillin-resistant Staphylococcus aureus clinical isolate 16-1 infected in kunming mouse model assessed as survival rate at 14 mg/kg, iv pre-infected with bacteria for 10 mins followed by compound administration and measured for 7 days (reference value: 0 %); assay type: functional; settings: 168 h, time 7 day
[11] = system: Staphylococcus epidermidis; experiment: Antibacterial activity against methicillin-sensitive Staphylococcus epidermidis (8 strains) assessed as inhibition of bacterial growth incubated for 18 to 24 hrs by broth microdilution method; assay type: functional; settings: time 18-24 hrs
[12] = Selectivity index, ratio of CC50 for cytotoxicity against human HepG2 cells to MIC for antibacterial activity against Staphylococcus aureus ATCC 29213; assay type: toxicity, cell-based; settings: read-out: Selectivity Index
Staphylococcus aureus [13] = experiment: Antibacterial activity against methicillin-resistant Staphylococcus aureus clinical isolate 16-1 infected in kunming mouse model assessed as survival rate at 20 mg/kg, iv pre-infected with bacteria for 10 mins followed by compound administration and measured for 7 days (reference value: 0 %); assay type: functional; settings: 168 h, time 7 day
Staphylococcus aureus [14] = experiment: Antibacterial activity against methicillin-resistant Staphylococcus aureus clinical isolate 16-1 infected in kunming mouse model assessed as survival rate at 10 mg/kg, iv pre-infected with bacteria for 10 mins followed by compound administration and measured for 7 days (reference value: 0 %); assay type: functional; settings: 168 h, time 7 day
Staphylococcus aureus [15] = experiment: Bacteriostatic activity against Staphylococcus aureus ATCC 29213 assessed as log reduction in bacterial colony counts at 4 times of MIC measured after 24 hrs by time-kill assay; assay type: functional
Staphylococcus aureus [16] = experiment: Antibacterial activity against methicillin-sensitive Staphylococcus aureus (8 strains) assessed as inhibition of bacterial growth incubated for 18 to 24 hrs by broth microdilution method; assay type: functional; settings: time 18-24 hrs
[17] = Metabolic stability in mouse liver microsomes assessed as half-life at 1 uM measured upto 60 mins in presence of NADPH by LC-MS/MS analysis; assay type: ADME, Microsome
Staphylococcus aureus [18] = experiment: Bactericidal activity against Staphylococcus aureus ATCC 29213 at 16 times of MIC measured after 24 hrs by time-kill assay; assay type: functional, organism-based
[19] = molecular target: DNA gyrase (Staphylococcus aureus) (UniProt P0A0K8+P20831); experiment: Inhibition of Staphylococcus aureus DNA gyrase supercoiling using […] pBR322 DNA as substrate assessed as reduction in supercoiled DNA incubated for 30 mins in presence of ATP by agarose gel electrophoresis; assay type: protein-complex assay; settings: dose 0.01-100 µM
Staphylococcus aureus [20] = experiment: Antibacterial activity against vancomycin intermediate and methicillin-resistant Staphylococcus aureus (2 strains) assessed as inhibition of bacterial growth incubated for 18 to 24 hrs by broth microdilution method; assay type: functional; settings: time 18-24 hrs
Staphylococcus aureus [21] = experiment: Antibacterial activity against methicillin-resistant Staphylococcus aureus (15 strains) assessed as inhibition of bacterial growth incubated for 18 to 24 hrs by broth microdilution method; assay type: functional; settings: time 18-24 hrs
[22] = system: Staphylococcus epidermidis; experiment: Antibacterial activity against methicillin-resistant Staphylococcus epidermidis (11 strains) assessed as inhibition of bacterial growth incubated for 18 to 24 hrs by broth microdilution method; assay type: functional; settings: time 18-24 hrs
[23] = Selectivity index, ratio of CC50 for cytotoxicity against HUVEC cells to MIC for antibacterial activity against Staphylococcus aureus ATCC 29213; assay type: toxicity, cell-based; settings: human, read-out: Selectivity Index
Staphylococcus aureus [24] = experiment: Bacteriostatic activity against Staphylococcus aureus ATCC 29213 assessed as inhibition of bacterial growth at 1 times of MIC measured after 24 hrs by time-kill assay; assay type: functional, organism-based
Staphylococcus aureus [25] = experiment: Bacteriostatic activity against Staphylococcus aureus ATCC 29213 assessed as inhibition of bacterial growth at 4 times of MIC measured after 24 hrs by time-kill assay; assay type: functional, organism-based
Enterococcus faecalis = experiment: Antibacterial activity against Enterococcus faecalis (8 strains) assessed as inhibition of bacterial growth incubated for 18 to 24 hrs by broth microdilution method; assay type: functional; settings: time 18-24 hrs
[26] = Stability in mouse plasma assessed as half-life at 1 uM measured upto 120 mins by LC-MS/MS analysis; assay type: ADME, cell-free
Enterococcus faecium = experiment: Antibacterial activity against Enterococcus faecium (8 strains) assessed as inhibition of bacterial growth incubated for 18 to 24 hrs by broth microdilution method; assay type: functional; settings: time 18-24 hrs
Staphylococcus aureus [27] = experiment: Antibacterial activity against methicillin-resistant Staphylococcus aureus clinical isolate 16-1 infected in kunming mouse model assessed as survival rate at 3.5 mg/kg, iv pre-infected with bacteria for 10 mins followed by compound administration and measured for 7 days (reference value: 0 %); assay type: functional; settings: 168 h, time 7 day
Staphylococcus aureus [28] = experiment: Antibacterial activity against methicillin-resistant Staphylococcus aureus clinical isolate 16-1 infected in kunming mouse model assessed as survival rate at 5 mg/kg, iv pre-infected with bacteria for 10 mins followed by compound administration and measured for 7 days (reference value: 0 %); assay type: functional; settings: 168 h, time 7 day

MIC (Staphylococcus aureus [3]): > 100 µg/mL
SMILES: CCCCCCOc1ccc(C(=O)NNC(=S)NCC)cc1

MIC (Staphylococcus aureus [3]): 50 µg/mL
SMILES: CCCCCOc1ccc(C(=O)NNC(=S)NC(=O)C2CCCC2)cc1

MIC (Staphylococcus aureus [3]): 50 µg/mL
SMILES: CCCCCOc1ccc(C(=O)NNC(=S)NC(=O)CCC(=O)O)cc1

MIC (Staphylococcus aureus [3]): > 100 µg/mL
SMILES: CCCCCOc1ccc(C(=O)NNC(=S)NC(=O)c2ccc(C(=O)OC)cc2)cc1

MIC (Staphylococcus aureus [3]): 100 µg/mL
SMILES: CC(=O)NC(=S)NNC(=O)c1ccc(O)c(O)c1

MIC (Staphylococcus aureus [3]): > 100 µg/mL
SMILES: CCCCCOc1ccc(C(=O)NNC(=S)NC(=O)Cc2ccccc2)cc1

MIC (Staphylococcus aureus [3]): 1.56 µg/mL
SMILES: CCCCCOc1ccc(C(=O)NNC(=S)NC(=O)CC)cc1

MIC (Staphylococcus aureus [3]): 3.12 µg/mL
SMILES: CC(=O)NC(=S)NNC(=O)c1ccc(OCCCC(C)C)cc1

MIC (Staphylococcus aureus [3]): 3.12 µg/mL
SMILES: CCCCCOc1ccc(C(=O)NC(=S)NNC(C)=O)cc1

MIC (Staphylococcus aureus [3]): 3.12 µg/mL
SMILES: CCCCCOc1ccc(C(=O)NNC(=S)NC(=O)c2cccs2)cc1

MIC (Staphylococcus aureus [3]): > 100 µg/mL
SMILES: CCCCCCOc1ccc(CNNC(=S)NCC)cc1

MIC (Staphylococcus aureus [3]): 25 µg/mL
SMILES: CCC(=O)NC(=S)NNC(=O)c1ccc(OC)cc1

MIC (Staphylococcus aureus [3]): > 100 µg/mL
SMILES: CCCCCCOc1ccc(C(=O)N(C)NC(=S)NC(C)=O)cc1

MIC (Staphylococcus aureus [3]): 0.58 µM
IC50 (DNA gyrase [4]): 230 nM
SMILES: CCC1CCC(c2ccc(C(=O)NNC(=S)NC(C)=O)cc2)CC1 (stereo not drawn)
CC50 at 48 h [1]: 67 nM
selectivity ratio [12]: 0.05
selectivity ratio [23]: 0.12
CC50 at 48 h [2]: 26 nM

MIC (Staphylococcus aureus [3]): 50 µg/mL
SMILES: CCC(=O)NC(=S)NNC(=O)c1ccccc1

Second part, the compound before the results:

SMILES: CC(=O)O[C@H]1C(=O)[C@@]2(C)[C@H]([C@H](OC(=O)c3ccccc3)[C@]3(O)C[C@H](OC(=O)[C@H](O)[C@@H](NC(=O)c4ccccc4)c4ccccc4)C(C)=C1C3(C)C)[C@]1(OC(C)=O)CO[C@@H]1C[C@@H]2O [PACLITAXEL]
CC50 at 48 h [1]: 16 nM
CC50 at 48 h [2]: 10 nM

SMILES: CCCCCCOc1ccc(C(=O)NNC(=S)NC(C)=O)cc1
MIC (Staphylococcus aureus [3]): 1.56 µg/mL
IC50 (DNA gyrase [4]): 1010 nM

SMILES: CCCCCOc1ccc(C(=O)NNC(=S)NC(=O)C2CC2)cc1
MIC (Staphylococcus aureus [3]): 6.25 µg/mL

SMILES: CCCCCOc1ccc(C(=O)NNC(=S)NC(C)=O)cc1OCCCCC
MIC (Staphylococcus aureus [3]): 6.25 µg/mL

SMILES: CC(=O)NC(=S)NNC(=O)c1ccc(N2CCOCC2)cc1
MIC (Staphylococcus aureus [3]): 100 µg/mL

SMILES: CCCCCOc1ccc(C(=O)NNC(=S)NC(=O)CCC(=O)OC)cc1
MIC (Staphylococcus aureus [3]): 12.5 µg/mL

SMILES: CC(=O)NC(=S)NNC(=O)c1ccccc1
MIC (Staphylococcus aureus [3]): 50 µg/mL

SMILES: O=C(NC(=S)NNC(=O)c1cccc(Cl)c1Cl)c1ccc([N+](=O)[O-])cc1
MIC (Staphylococcus aureus [5]): 1.95 µg/mL (≈ 4.72 µM)
IC50 (Topoisomerase IV): > 100000 nM
IC50 (DNA gyrase [6]): > 100000 nM
MIC (Staphylococcus aureus [7]): > 62.5 µg/mL

SMILES: CCCCCCOc1ccc(-c2nnc(NC(C)=O)s2)cc1
MIC (Staphylococcus aureus [3]): > 100 µg/mL

SMILES: CCCCOc1ccc(C(=O)NNC(=S)NC(C)=O)cc1
MIC (Staphylococcus aureus [3]): 1.56 µg/mL

SMILES: CCCCCOc1ccc(C(=O)NNC(=S)NC(C)=O)cc1
survival at 7 mg/kg (Staphylococcus aureus [8]): 10%
CC50 at 48 h [1]: 6460 nM
log(activity) (Staphylococcus aureus [9]): 6.41
survival at 14 mg/kg (Staphylococcus aureus [10]): 20%
MIC [11]: 1 µg/mL (≈ 3.09 µM)
selectivity ratio [12]: 0.98
survival at 20 mg/kg (Staphylococcus aureus [13]): 50%
survival at 10 mg/kg (Staphylococcus aureus [14]): 20%
log(activity) (Staphylococcus aureus [15]): 2.51
MIC (Staphylococcus aureus [16]): 1 µg/mL (≈ 3.09 µM)
half-life at 1 µM [17]: 28.3 min
Activity (Staphylococcus aureus [18]): Active
MIC (Staphylococcus aureus [3]): 2.41 µM
inhibition [19]: Dose-dependent-effect
MIC (Staphylococcus aureus [20]): 2 µg/mL (≈ 6.18 µM)
MIC (Staphylococcus aureus [21]): 2 µg/mL (≈ 6.18 µM)
MIC [22]: 0.5 µg/mL (≈ 1.55 µM)
IC50 (DNA gyrase [4]): 1810 nM
selectivity ratio [23]: 2.68
Activity (Staphylococcus aureus [24]): Active
Activity (Staphylococcus aureus [25]): Active
MIC (Enterococcus faecalis): 4 µg/mL (≈ 12.4 µM)
CC50 at 48 h [2]: 2370 nM
half-life at 1 µM [26]: > 120 min
MIC (Enterococcus faecium): 2 µg/mL (≈ 6.18 µM)

SMILES: CN[C@H](CC(C)C)C(=O)N[C@H]1C(=O)N[C@@H](CC(N)=O)C(=O)N[C@H]2C(=O)N[C@H]3C(=O)N[C@H](C(=O)N[C@H](C(=O)O)c4cc(O)cc(O)c4-c4cc3ccc4O)[C@H](O)c3ccc(c(Cl)c3)Oc3cc2cc(c3O[C@@H]2O[C@H](CO)[C@@H](O)[C@H](O)[C@H]2O[C@H]2C[C@](C)(N)[C@H](O)[C@H](C)O2)Oc2ccc(cc2Cl)[C@H]1O [VANCOMYCIN]
survival at 7 mg/kg (Staphylococcus aureus [8]): 50%
survival at 3.5 mg/kg (Staphylococcus aureus [27]): 20%
survival at 10 mg/kg (Staphylococcus aureus [14]): 60%
survival at 5 mg/kg (Staphylococcus aureus [28]): 50%
MIC (Staphylococcus aureus [3]): 1.56 µg/mL
MIC (Staphylococcus aureus [21]): 0.25 µg/mL (≈ 0.173 µM)

SMILES: CC(=O)NC(=S)NNC(=O)c1ccccc1O
MIC (Staphylococcus aureus [3]): 50 µg/mL

SMILES: CC(=O)NC(=S)NNC(=O)c1ccc(Oc2ccccc2)cc1
MIC (Staphylococcus aureus [3]): 3.12 µg/mL
